Data on 52 compounds can be found in PubChem BioAssay AID1996.

SMILES strings stand for the structures. In brackets after ≈: the same amount, converted by molar mass.

For the series the following is noted: buffer; pH 7.4; 200.0 µM.
In the case of `Cc1c(C(=O)N2c3ccccc3CC2C)oc2ccccc12` (configuration not stated), the solubility (kinetic) was found to be 0.7 µg/mL (≈ 2.4 µM).

In turn, `COP(=O)(c1ccc(N(C)C)cc1)C(O)c1ccccc1` (configuration not stated) returned a kinetic solubility of more than 45.8 µg/mL.

On to `O=[N+]([O-])c1cc2c(cc1CN1CCN(c3ccccc3F)CC1)OCO2`, for which the solubility (kinetic) was 1.1 µg/mL (≈ 3.06 µM).

The compound `CN1C(c2ccccc2)=NO[C@]1(C)c1ccccc1` displayed a solubility (kinetic) of 35.9 µg/mL (≈ 142 µM).

For the compound `CNC(=O)C1=C(C)Nc2nc3ccccc3n2C1c1ccc(F)cc1` (configuration not stated), the kinetic solubility was determined as 48.9 µg/mL (≈ 145 µM).

For `COc1ccc(/C=C2\SC(=O)N(CCCC(=O)Nc3cc(Cl)ccc3C(=O)O)C2=O)cc1`, the solubility (kinetic) is more than 71.2 µg/mL.

`CCN(Cc1ccccc1)C(=O)COC(=O)[C@@H]1CCCN1C(=O)c1cccs1`: the solubility (kinetic) was more than 60.1 µg/mL.

`CC(NC(=O)NC(=O)c1ccc(Cl)cc1)c1ccccc1` (configuration not stated) yielded a kinetic solubility of 0.4 µg/mL (≈ 1.32 µM).

For the compound `CN(Cc1ccccc1F)C(=O)CCCNC(=O)c1ccc(Cl)cc1`, the kinetic solubility was 32.4 µg/mL (≈ 89.3 µM).

Compound `CCCc1nnc(NC(=O)CCC(=O)NC2CC2)s1` yielded a solubility (kinetic) of more than 42.4 µg/mL.

As to `C(=C\c1ccc2ccccc2n1)/c1ccccc1`, the solubility (kinetic) amounted to 0.5 µg/mL (≈ 2.16 µM).

`NC(=O)c1c(NC(=O)c2cccnc2)sc2c1CCCCC2` gave a solubility (kinetic) of 6 µg/mL (≈ 19 µM).

Compound `O=C(NC1CCC(O)CC1)c1ccc(-c2ccc(Cl)cc2)o1` (configuration not stated) registered a kinetic solubility of 18.7 µg/mL (≈ 58.5 µM). This solubility kinetic lies about 3.1-fold higher than the previous one.

`COC(=O)c1c(C(=O)OC)c2n(c1C)CCS2` came in with a kinetic solubility of more than 38.3 µg/mL.

`c1ccc2oc(NC3=NCN(C4CCCCC4)CN3)nc2c1` gave a kinetic solubility of 1.3 µg/mL (≈ 4.34 µM).

As for `COCc1nnc(NC(=O)c2cc3ccccc3o2)s1`, the kinetic solubility is more than 43.4 µg/mL.

On to `O=Cc1ccc(OCC(=O)Nc2ccccc2-c2ccccc2)cc1`, for which the solubility (kinetic) turned out to be 0.8 µg/mL (≈ 2.41 µM).

Regarding `NC(N)=NCCCC(NC(=O)c1ccccc1)C(=O)Nc1ccc2ccccc2c1` (configuration not stated), the solubility (kinetic) was 52.2 µg/mL (≈ 129 µM).

`Br.O=C(Cn1c(NCCO)nc2ccccc21)c1ccc(F)cc1` registered a solubility (kinetic) of 22.4 µg/mL. This solubility kinetic is about 2.3-fold lower than that of the compound before.

`CCOc1ccc(NC(=O)c2ccc(-c3csc(C)n3)cc2)cc1` returned a kinetic solubility of less than 0.4 µg/mL.

With `CC(=O)c1sc(=S)n(Cc2ccccc2)c1C`, the solubility (kinetic) was 38 µg/mL (≈ 144 µM).

With `N#Cc1ccncc1S(=O)c1ccc(Cl)cc1` (configuration not stated), the solubility (kinetic) is more than 39.4 µg/mL.

`CC(C(=O)Nc1ccc(S(=O)(=O)N2CCCC2)cc1)N(C)CC(=O)Nc1cccc(F)c1` (configuration not stated) yielded a kinetic solubility of 28.7 µg/mL (≈ 62 µM).

For the compound `Cc1ccc2nc(N3CCOCC3)c(C=O)cc2c1`, the kinetic solubility was 25.8 µg/mL (≈ 101 µM).

For `COC(=O)c1[nH]c2cc(OC)ccc2c1NC(=O)c1c(F)cccc1F`, the kinetic solubility stood at 4.9 µg/mL (≈ 13.6 µM).

Compound `COCCNC(=O)/C(C#N)=C/c1cccc(OCc2ccccc2)c1` had a solubility (kinetic) of 21.2 µg/mL (≈ 63 µM).

`Cn1c(=O)n(C)c2cc(NC(=O)c3ccc(F)cc3)ccc21` yielded a kinetic solubility of 15.5 µg/mL (≈ 51.8 µM).

For `CN[C@@H]1CC[C@H](c2ccc(Cl)c(Cl)c2)c2ccccc21`, the solubility (kinetic) amounted to 28.8 µg/mL (≈ 94 µM).

`Cc1cc(=O)[nH]c(SCC(=O)Nc2ccc3c(c2)OCCO3)n1` displayed a solubility (kinetic) of more than 50 µg/mL.

With `Cc1ccccc1NC(=O)Cc1cccs1`, the kinetic solubility is more than 34.7 µg/mL.

`C[C@H](NS(=O)(=O)c1ccccc1)C(=O)N1CCN(C(c2ccccc2)c2ccccc2)CC1` returned a solubility (kinetic) of 16.2 µg/mL (≈ 34.9 µM).

The compound `C=CCc1ccccc1Oc1cc(OC)nc(N)n1` came in with a solubility (kinetic) of more than 38.6 µg/mL.

In the case of `CC(Sc1nncn1C)C(=O)NCCC1=CCCCC1` (configuration not stated), the kinetic solubility is more than 44.2 µg/mL.

Regarding `COCCNc1nnc(Cc2ccccc2)c(=O)[nH]1`, the solubility (kinetic) was more than 39 µg/mL.

For the compound `CC1=CC(=O)C(C(C)C)=C/C1=N/OS(=O)(=O)c1ccccc1`, the kinetic solubility was determined as 7.9 µg/mL (≈ 24.7 µM).

In the case of `Cc1ccc2oc(=O)c(/C=C(\O)C(C)(C)C)nc2c1`, the kinetic solubility worked out at 28.3 µg/mL (≈ 109 µM).

Compound `CC1CN(C(=O)c2cccs2)CC(C)O1` (configuration not stated) had a kinetic solubility of 32.4 µg/mL (≈ 144 µM). This solubility kinetic and that of the compound before are within 1.5-fold of each other.

`CC(=O)c1cccc(Nc2nc(-c3sc(N)nc3C)cs2)c1` displayed a solubility (kinetic) of 4.5 µg/mL (≈ 13.6 µM). Against the preceding compound, the solubility kinetic is about 7.2-fold lower.

As to `NS(=O)(=O)c1ccc(CNC(=O)c2cccnc2Cl)cc1`, the kinetic solubility was 38.3 µg/mL (≈ 118 µM). This solubility kinetic is about 8.5-fold higher than that of the compound before.

The compound `CCN(CC)c1ccc(C=Nc2cccnc2Cl)c(O)c1` showed a solubility (kinetic) of 33.3 µg/mL (≈ 110 µM).

Turning to `Cc1nc2ccccc2cc1C(=O)NCc1ccccc1`, the solubility (kinetic) is more than 41.5 µg/mL.

With `Cc1[nH]c2ccccc2c1C(=O)C(C)OC(=O)c1ccc(Cl)nc1` (configuration not stated), the solubility (kinetic) was 26.6 µg/mL (≈ 77.6 µM).

Compound `CCOC(=O)C1=C(CN2CCCCCC2)NC(=O)NC1c1ccc2c(c1)OCO2` (configuration not stated) gave a solubility (kinetic) of 53.5 µg/mL (≈ 133 µM).

As to `Cc1ccc(NC(=O)CCc2ccc(C)o2)cc1`, the solubility (kinetic) was 21.1 µg/mL (≈ 86.7 µM).

Compound `COc1cc(OC)c(N(C)S(=O)(=O)c2cccc(C(=O)OCC(=O)N3CCOCC3)c2)cc1Cl` yielded a kinetic solubility of 56.6 µg/mL (≈ 110 µM).

Consider `Cc1ccc(N=Cc2c(O)c3ccccc3n(C)c2=O)cc1`, for which the solubility (kinetic) was 3.3 µg/mL (≈ 11.3 µM).

Consider `Cc1onc(-c2ccccc2)c1C(O)c1ccc(F)cc1` (configuration not stated), for which the solubility (kinetic) was more than 42.5 µg/mL.

For the compound `O=C(c1cc(=O)[nH]c2ccccc12)N1CCc2ccccc2C1`, the solubility (kinetic) amounted to 42.9 µg/mL (≈ 141 µM).

Consider `COc1ccccc1C1CCN(C(=O)c2ccco2)CC1`, for which the solubility (kinetic) was found to be 34 µg/mL (≈ 119 µM).

On to `CC(=O)NCCNS(=O)(=O)c1ccc(C)c([N+](=O)[O-])c1`, for which the kinetic solubility is more than 45.2 µg/mL.

In the case of `CC(=O)C1=C(C)NC(C)=C(C(C)=O)C1c1ccccc1`, the kinetic solubility was found to be 35.3 µg/mL (≈ 131 µM).

As to `Cc1ccc(NC(=O)Cn2c(=O)oc3ccccc32)c(C)c1`, the solubility (kinetic) worked out at 13.9 µg/mL (≈ 46.9 µM).

As a reminder, the solubility (kinetic) is solubility judged after dilution from a stock solution rather than from solid.
